Results as given in patent US5736568A, “2-(aminoalkoxy) phenylalkylamines with antiinflammatory activity” (Knoll Aktiengesellschaft, priority 1994, dated 1998).
pIC50: −log10 of the molar value.

Legend:
[1] = system: carrageenan-induced pleurisy; experiment: Test C: Carrageenan-induced pleurisy in rats; assay type: in vivo, rat; details: 24 h and 48 h, leukocytes harvested at 72 h; for activity in Test C at 10 mg/kg or less: 10 mg/kg or less p.o. at challenge; for activity in Test C at 30 mg/kg: 30 mg/kg p.o. at challenge
Method: The most advantageous compounds of formula I were active in Test A and also in the following test. Carrageenan-induced pleurisy in rats was carried out as described by Ackerman et al. J. Pharmacol. Exp. Therap. 1980, 215, 588-595. Migrating leukocytes were harvested by lavage of the thoracic cavity 72 h after injection of 0.3 ml 1% λ-carrageenan in sterile isotonic saline. Test compounds were administered p.o. at the time of challenge and 24 h and 48 h thereafter.

[2] = system: carrageenan-induced paw oedema; experiment: Test B: Carrageenan-induced rat paw oedema test; assay type: in vivo; details: inhibition of paw oedema, 100 mg/kg oral, 3 h after carrageenan
Method: Test B was carried out in the following way:
Carrageenan-induced rat paw oedema test
Female rats, weight range 125-150 g were fasted overnight. One of the hind legs of each animal was marked with a line at the connection between the cuboid/navicular and calcaneus/talus bones. Groups of six rats were orally dosed at 10 ml/kg, in random order, with a given dose of the test compound given as a solution or suspension in 10% (w/v) aqueous acacia solution.
One hour after dosing, 0.1 ml of 1% (w/v) sterile carrageenan λ in normal saline was injected deeply into the plantar surface of the marked hind foot of each rat. The volume of the foot (up to the marked line) was measured immediately after injection using duplicate water displacement readings. Three hours after injection the foot volume was measured again and the percentage increase in foot volume relative to the initial reading was calculated.
The increase in foot volume (i.e. the degree of oedema) in drug treated animals when compared with that in the drug untreated control gave the degree of inhibition of paw oedema by the drug.
Compounds were considered to be active in this test if they produced a statistically significant (typically 20% or greater) inhibition of paw oedema in at least two out of three tests after oral dosing at 100 mg/kg. Statistical significance was assessed using the Student's t test for single dose studies and Dunnett's test for multiple dose studies. More advantageous compounds were active in both Tests A and B,

[3] = system: arachidonic acid release from zymosan stimulated macrophages; experiment: Test A: Inhibition of Arachidonic Acid Release from Zymosan Stimulated Macrophages; assay type: cell-based, mice (female MF1); details: Mus musculus, Macrophage; peritoneal macrophages labelled with [3H]-arachidonic acid, zymosan stimulus, 5 h; tested at 100, 50, 20, 10, 5 and 1 μM
Method: Test A was carried out in the following way:
Inhibition of Arachidonic Acid Release from Zymosan Stimulated Macrophages
Female MF1 mice (weighing 20 to 25 g) were killed using a rising concentration of CO2. The mice were laid on their backs and the abdomens wiped with 70% alcohol. The skin was pulled back, exposing the peritoneal wall. Medium A (5 ml) (see below) was injected into the peritoneal cavity of each mouse followed by approximately 1 ml of air using a 20 ml syringe and a 21 G×40 mm needle in order to form a suspension of macrophage cells. The medium and cells were then removed using a 19 G×40 mm needle. The resulting suspension was returned to a sterile beaker kept on ice. The extracts from all the mice were pooled and this pooled cell suspension was counted using a Coulter counter and adjusted to a final cell count of 1-1.3×10^6 cells/ml prior to labelling with [^3 H]-arachidonic acid. Typically five mice provided sufficient cells for each multiwell plate.
Sufficient [^3 H]-arachidonic acid in ethanol to give a final concentration of 1.6 μCi/ml (equivalent to 40 μCi/plate) was blown to dryness under nitrogen. The arachidonic acid was then resuspended in 1 or 2 ml of the cell suspension which was then mixed with the remainder of the cell suspension in a centrifuge bottle.
The following day, non-adherent cells were removed by washing 3 times with sterile phosphate buffered saline (PBS). The adherent peritoneal macrophages were then cultured for a further 24 hours in the presence or absence of drugs, in medium B (see below) at 37° in a 5% CO2 atmosphere in order to measure the effects of drugs on the spontaneous release of arachidonic acid in the absence of stimulus. After this incubation, supernatants were removed to give medium 1 and stored in sealed multi-well plates at 4° C. prior to scintillation counting. […] The supernatants were replaced by fresh medium C containing fresh drug and a stimulus. Three drugs were tested at six concentrations (100, 50, 20, 10, 5 and 1 μM) in replicates of four on each plate. The other wells contained controls consisting of a positive control (e.g. dexamethasone), medium (B) only and medium C only.
Incubation was then continued for a further 5 hours, whereupon the supernatants were collected to give medium 2 and the adherent cells washed with PBS. The cells were then lysed with 100 μl of 0.1% TRITON® X100 in a 0.1% solution of bovine serum albumin in 0.9% saline and mechanically disrupted to give cell lysates. These supernatants (medium 2) and cell lysates (Cells) were also stored in sealed multi-well plates at 4° C. prior to scintillation counting. 200 μl aliquots of media, or 100 μl aliquots of cells were counted using 2 ml of OPTIPHASE "HIGH SAFE" (Trademark of LKB) as scintillant.
The percentage of arachidonic acid released was calculated using the mean values for each group of 4 wells in the following equation. [formula]
The percentage inhibition of arachidonic acid release caused by a drug may then be calculated using the following equation. [formula]
Medium A (for peritoneal lavage)
This mixture was transferred to sterile flask and made up to 400 ml with sterile water.
Medium B (for cell culture)
This mixture was transferred to a sterile beaker and made up to 650 ml with sterile water.
Medium C=medium B+stimulant (zymosan)
The zymosan stimulant was prepared as follows:--zymosan (200 mg) (supplied by Sigma) was added to PBS (20 ml). The mixture was boiled for 30 minutes and the volume restored to 20 ml with water. The zymosan was harvested by centrifugation at 500×g for 5 minutes, washed twice by resuspension in PBS (10 ml) and centrifugation. After the final separation, the zymosan was resuspended in 20 ml PBS and stored as 1 ml aliquots at -20° C.

Structure (SMILES) | activity in Test C at 10 mg/kg or less [1] | inhibition at 100 mg/kg [2] [%] | pIC50 [3] | activity in Test C at 30 mg/kg [1]
CN(C)Cc1c(Cl)cccc1OCCN(C)Cc1ccccc1 [Example 1, 2-[2-(N-benzyl-N-methylamino)ethoxy]-6-chloro-N,N-dimethylbenzylamine] | active | 70 | 4.82 | –
CN(C)Cc1cccc(Cl)c1OCCN(C)Cc1ccccc1 [Example 2, 2-[2-(N-Benzyl-N-methylamino)ethoxy]-3-chloro-N,N-dimethylbenzylamine] | – | – | 4.19 | –
CN(C)Cc1cc(F)ccc1OCCN(C)Cc1ccccc1 [Example 3, 2-[2-(N-Benzyl-N-methylamino)ethoxy]-5-fluoro-N,N-dimethylbenzylamine] | – | 52 | 4.70 | active
CN(C)Cc1cc(C#N)ccc1OCCN(C)Cc1ccccc1 [Example 4, 4-[2-(N-Benzyl-N-methylamino)ethoxy]-3-(dimethylaminomethyl)benzonitrile] | – | – | 4.22 | –
CN(C)Cc1cc(Cl)c(Cl)cc1OCCN(C)Cc1ccccc1 [Example 5, 2-[2-(N-Benzyl-N-methylamino)ethoxy]-4,5-dichloro-N,N-dimethylbenzylamine] | – | 6 | 4.92 | –
CN(C)Cc1ccc(Cl)cc1OCCN(C)Cc1ccccc1 [Example 6, 2-[2-(N-Benzyl-N-methylamino)ethoxy]-4-chloro-N,N-dimethylbenzylamine] | – | 18 | 4.82 | active
CN(C)Cc1cc(C(F)(F)F)ccc1OCCN(C)Cc1ccccc1 [Example 7, 2-[2-(N-Benzyl-N-methylamino)ethoxy]-N,N-dimethyl-5-trifluoromethylbenzylamine] | – | 18 | 4.70 | –
CN(C)Cc1c(OCCN(C)Cc2ccccc2)ccc2ccccc12 [Example 8, N-Benzyl-2-[1-(dimethylaminomethyl)naphth-2-yloxy]-N-methylethylamine] | – | 23 | 4.89 | active
CN(C)Cc1cc(Cl)ccc1OCCNCc1ccccc1 [Example 9, 2-[2-(Benzylamino)ethoxy]-5-chloro-N,N-dimethylbenzyl-amine] | – | 56 | 5.05 | –
CN(C)Cc1cc(Cl)ccc1OCCN(C)Cc1ccc(C#N)cc1 [Example 10, 4-{N-[2-(4-Chloro-2-dimethylaminomethylphenoxy)ethyl]-N-[methyl]aminomethyl}benzonitrile] | – | – | 4.33 | –
CN(C)Cc1ccccc1OCCN(C)Cc1ccccc1Cl [Example 14, 2-{2-[N-(2-Chlorobenzyl)-N-methylamino]ethoxy}-N,N-dimethylbenzylamine] | active | – | 4.35 | –
CN(C)Cc1cc(Cl)ccc1OCCN1CCCCC1 [Example 16, 5-Chloro-2-(2-piperidinoethoxy)-N,N-dimethylbenzylamine] | – | – | 4.59 | –
COc1ccc(CN(C)C)c(OCCN(C)Cc2ccccc2)c1 [Example 18, 2-[2-(N-Benzyl-N-methylamino)ethoxy]-4-methoxy-N,N-dimethylbenzylamine] | – | – | 4.62 | –
CCN(CC)CCOc1ccccc1CN(C)C [Example 19, 2-(2-diethylaminoethoxy)-N,N-dimethylbenzylamine] | – | – | 4.19 | –
CN(C)CCOc1ccccc1CN(C)C [Example 23, 2-(2-dimethylaminoethoxy)-N,N-dimethylbenzylamine] | – | – | 4.21 | –
CN(C)CCCOc1ccccc1CN(C)C [Example 24, N,N-dimethyl-2-(3-dimethylaminopropoxy) benzylamine] | – | – | 4.30 | –
CCN(CC)CCOc1ccc(Cl)cc1CN(C)C [Example 25] | – | 22 | 4.52 | –
COC(=O)c1ccc(OCCN(C)Cc2ccccc2)c(CN(C)C)c1 [Example 26, methyl 4-[2-(N-benzyl-N-methylamino)ethoxy]-3-(dimethylaminomethyl) benzoate] | – | – | 4.48 | –
COc1ccc(OCCN(C)Cc2ccccc2)c(CN)c1 [Example 27, 2-[2-(N-benzyl-N-methylamino)ethoxy]-5-methoxybenzylamine] | – | – | 4.47 | –
CN(CCOc1ccc(Cl)cc1CN)Cc1ccccc1 [Example 28, 2-[2-(N-benzyl-N-methylamino)ethoxy]-5-chlorobenzylamine] | – | – | 4.74 | –
CN(CCCOc1cccc(Cl)c1CN)Cc1ccccc1 [Example 29, 2-[3-(N-benzyl-N-methylamino)propoxy]-6-chlorobenzylamine] | – | – | 4.82 | –
CN(C)Cc1cc(Cl)ccc1OCCN(C)Cc1ccc(C(N)=O)cc1 [Example 30, 4-{N-[2-(4-chloro-2-dimethylaminomethylphenoxy)ethyl]-N-[methyl]aminomethyl}benzamide] | – | – | 4.13 | –
CN(C)Cc1cc(C(N)=O)ccc1OCCN(C)Cc1ccc(Cl)cc1 [Example 31, 4-{2-[N-(4-chlorobenzyl)-N-methylamino]ethoxy}-3-(dimethylaminomethyl)benzamide] | – | 19 | 4.41 | –
CN(C)Cc1cc(O)ccc1OCCN(C)Cc1ccccc1 [Example 32, 4-[2-(N-benzyl-N-methylamino)ethoxy]-3-(dimethylaminomethyl)phenol] | – | 0 | 4.41 | –
CN(C)Cc1c(Cl)cccc1OCCN(C)Cc1ccccc1O [Example 33, 2-{N-[2-(3-chloro-2-dimethylaminomethylphenoxy)ethyl]-N-[methyl]aminomethyl}phenol] | active | – | 4.80 | –
COc1ccc(OCCN(C)Cc2ccccc2)c(CN(C)C)c1 [Example 34, 2-[2-(N-benzyl-N-methylamino)ethoxy]-5-methoxy-N,N-dimethylbenzylamine] | – | – | 4.46 | –
CN(C)Cc1c(Cl)cccc1OCCCN(C)Cc1ccccc1 [Example 35, 2-[3-(N-benzyl-N-methylamino)propoxy]-6-chloro-N,N-dimethylbenzylamine] | active | – | 4.48 | –
CN(C)Cc1ccccc1OCCNC(C)(C)c1ccc(Cl)cc1 [Example 36, 2-[2-(4-chloro-α,α-dimethylbenzylamino)ethoxy]-N,N-dimethylbenzylamine] | active | – | 5.52 | –
CN(CCOc1cccc(Cl)c1CN)Cc1ccccc1 [Example 37, 2-[2-(N-benzyl-N-methylamino)ethoxy]-6-chlorobenzylamine] | active | – | 4.92 | –
